Measured values: US10214512B2, “Factor XIA inhibitors” (MERCK SHARP & DOHME CORP., priority 2015, dated 2019)

How the values were obtained:
[1] = target: purified human Factor XIa (Homo sapiens (Human), UniProt P03951); test: Factor XIa Assay; format: biochemical; settings: purified human Factor XIa 40 pM; substrate Z-Gly-Pro-Arg-AFC 100 μM; 50 mM HEPES pH 7.4; read-out: Human FXIa Ki
Summary of the method: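 Ki obtained from the dependence of uninhibited/inhibited initial-velocity ratio on inhibitor concentration, under a competitive-inhibition model. Reactions used 100 μM Z-Gly-Pro-Arg-AFC and 40 pM final human Factor XIa in pH 7.4 HEPES buffer with NaCl, CaCl2 and PEG 8000; run at rt or 37° C following pre-equilibration.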

[2] = target: purified Human plasma Kallikrein (Homo sapiens (Human), UniProt P03952); test: Kallikrein Assay; format: biochemical; settings: purified Human plasma Kallikrein 0.5 nM; substrate Acetyl-K-P-R-AFC; 50 mM HEPES pH 7.4; Ki from IC50 by Cheng Prusoff
Sequence of purified Human plasma Kallikrein (P03952 391-638): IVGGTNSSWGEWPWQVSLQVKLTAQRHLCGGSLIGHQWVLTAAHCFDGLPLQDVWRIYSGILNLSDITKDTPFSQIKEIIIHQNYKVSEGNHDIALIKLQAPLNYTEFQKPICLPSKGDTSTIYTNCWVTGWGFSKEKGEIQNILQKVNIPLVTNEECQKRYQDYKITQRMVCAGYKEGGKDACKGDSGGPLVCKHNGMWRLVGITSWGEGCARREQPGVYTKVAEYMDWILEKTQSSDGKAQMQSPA
Sequence of purified Human plasma Kallikrein (P03952 20-390 partner): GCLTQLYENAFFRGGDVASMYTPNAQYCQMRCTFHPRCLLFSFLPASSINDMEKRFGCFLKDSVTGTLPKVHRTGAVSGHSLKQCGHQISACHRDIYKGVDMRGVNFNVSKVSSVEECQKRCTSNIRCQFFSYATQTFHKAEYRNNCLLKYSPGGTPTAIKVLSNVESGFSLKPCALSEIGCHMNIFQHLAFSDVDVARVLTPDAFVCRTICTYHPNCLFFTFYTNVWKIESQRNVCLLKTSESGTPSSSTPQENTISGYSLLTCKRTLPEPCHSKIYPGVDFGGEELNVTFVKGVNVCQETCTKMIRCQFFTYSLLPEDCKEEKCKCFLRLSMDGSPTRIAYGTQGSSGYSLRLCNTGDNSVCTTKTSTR
Summary of the method: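 Purified human plasma kallikrein (0.5 nM) with fluorogenic Ac-K-P-R-AFC ([…]) in 50 mM HEPES pH 7.4, 150 mM NaCl, 5 mM CaCl2, 0.1% PEG 8000, at rt or 37 °C. Substrate hydrolysis rate read with and without inhibitor; IC50 from four-parameter logistic fit, converted to Ki by Cheng–Prusoff.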

Sequence of purified human Factor XIa (P03951 388-625): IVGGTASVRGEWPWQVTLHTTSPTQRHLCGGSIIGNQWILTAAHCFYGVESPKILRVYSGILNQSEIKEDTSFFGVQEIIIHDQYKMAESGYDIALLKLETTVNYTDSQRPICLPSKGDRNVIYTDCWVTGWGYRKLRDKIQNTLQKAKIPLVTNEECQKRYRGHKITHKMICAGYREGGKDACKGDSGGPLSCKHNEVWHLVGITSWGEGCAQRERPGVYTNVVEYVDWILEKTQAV
Sequence of purified human Factor XIa (P03951 19-387 partner): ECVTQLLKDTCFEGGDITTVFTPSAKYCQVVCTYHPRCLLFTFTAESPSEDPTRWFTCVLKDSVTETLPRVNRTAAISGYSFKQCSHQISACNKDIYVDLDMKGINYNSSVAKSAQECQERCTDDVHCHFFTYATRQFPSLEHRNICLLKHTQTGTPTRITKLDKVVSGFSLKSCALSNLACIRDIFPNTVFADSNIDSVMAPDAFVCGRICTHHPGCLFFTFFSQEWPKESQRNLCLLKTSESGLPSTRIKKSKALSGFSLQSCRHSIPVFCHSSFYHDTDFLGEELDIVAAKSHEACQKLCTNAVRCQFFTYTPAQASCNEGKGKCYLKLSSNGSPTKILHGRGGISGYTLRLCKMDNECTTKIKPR

## COC(=O)Nc1cc(F)c2c(c1)NC(=O)C(C)CCCC(c1ccc(-c3c(F)ccc(Cl)c3F)c[n+]1[O-])c1cccc-2c1 (single isomer, unassigned) [Example 85-b, 5-(3-Chloro-2,6-difluorophenyl)-2-(2^6-fluoro-2^4-((methoxycarbonyl)amino)-5-methyl-4-oxo-3-aza-1(1,3),2(1,2)-dibenzenacyclononaphane-9-yl)pyridine 1-oxide]
[1]
  Ki: 6 nM
[2]
  Ki: 15.2 nM

## COC(=O)Nc1cc(F)c2c(c1)NC(=O)C(C)CCCC(c1ccc(-c3c(F)ccc(Cl)c3F)c[n+]1[O-])c1cccc-2c1 (single isomer, unassigned) [Example 85-c, 5-(3-Chloro-2,6-difluorophenyl)-2-(2^6-fluoro-2^4-((methoxycarbonyl)amino)-5-methyl-4-oxo-3-aza-1(1,3),2(1,2)-dibenzenacyclononaphane-9-yl)pyridine 1-oxide]
[1]
  Ki: 0.97 nM
[2]
  Ki: 2.59 nM

## COC(=O)Nc1ccc2c(c1)NC(=O)C(C)CCCC(c1ccc(-c3c(F)ccc(Cl)c3F)c[n+]1[O-])c1ccc(F)c-2c1 (single isomer, unassigned) [Example 86-a, 5-(3-Chloro-2,6-difluorophenyl)-2-(1^6-fluoro-2^4-((methoxycarbonyl)amino)-5-methyl-4-oxo-3-aza-1(1,3),2(1,2) -dibenzenacyclononaphane-9-yl)pyridine 1-oxide]
[1]
  Ki: 6.34 nM
[2]
  Ki: 1.29 nM

## COC(=O)Nc1ccc2c(c1)NC(=O)C(C)CCCC(c1ccc(-c3c(F)ccc(Cl)c3F)c[n+]1[O-])c1ccc(F)c-2c1 (single isomer, unassigned) [Example 86-d, 5-(3-Chloro-2,6-difluorophenyl)-2-(1^6-fluoro-2^4-((methoxycarbonyl)amino)-5-methyl-4-oxo-3-aza-1(1,3),2(1,2) -dibenzenacyclononaphane-9-yl)pyridine 1-oxide]
[1]
  Ki: 1.65 nM
[2]
  Ki: 5.36 nM

## COC(=O)Nc1ccc2c(c1)NC(=O)CCCCC(c1cc(OC)c(-c3c(F)ccc(Cl)c3F)c[n+]1[O-])c1cccc-2c1 (single isomer, unassigned) [Example 87-a, 5-(3-Chloro-2,6-difluorophenyl)-4-methoxy-2-(2^4-((methoxycarbonyl)amino)-4-oxo-3-aza-1(1,3),2(1,2) -dibenzenacyclononaphane-9-yl)pyridine 1-oxide]
[1]
  Ki: 4.1 nM
[2]
  Ki: 12.7 nM

## O=C1CCCCC(c2ccc(-c3cc(F)ccc3-n3cnnn3)c[n+]2[O-])c2cccc(c2)-c2cc(F)ccc2N1 (single isomer, unassigned) [Example 89-a, 5-(5-fluoro-2-(1H-tetrazol-1-yl)phenyl)-2-(2^5-fluoro-4-oxo-3-aza-1(1,3),2(1,2)-dibenzenacyclononaphane-9-yl)pyridine 1-oxide]
[1]
  Ki: 0.39 nM
[2]
  Ki: 13.6 nM

## O=C1CCCCC(c2ccc(-c3cc(F)ccc3-n3cc(Cl)nn3)c[n+]2[O-])c2cccc(c2)-c2cc(F)ccc2N1 (single isomer, unassigned) [Example 90-a, 5-(2-(4-Chloro-1H-1,2,3-triazol-1-yl)-5-fluorophenyl)-2-(2^5-fluoro-4-oxo-3-aza-1(1,3),2(1,2)-dinenzenacyclononaphane-9-yl)pyridine 1-oxide]
[1]
  Ki: 3.2 nM
[2]
  Ki: 121 nM

## COC(=O)Nc1ccc2c(c1)NC(=O)CCCCC(c1ccc(-c3c(F)ccc(Cl)c3F)c[n+]1[O-])c1nc-2c[nH]1 (single isomer, unassigned) [Example 96-a, (Z)-5-(3-chloro-2,6-difluorophenyl)-2-(2^4-((methoxycarbonyl)amino)-4-oxo-1^1H-3-aza-1(4,2)-imidazola-2(1,2)-benzenacyclononaphane-9-yl)pyridine 1-oxide]
[1]
  Ki: 0.53 nM
[2]
  Ki: 0.6 nM

## COC(=O)Nc1ccc2c(c1)NC(=O)CCCCC(c1ccc(-c3cc(Cl)ccc3-n3cnnn3)c[n+]1[O-])c1nc-2c[nH]1 (single isomer, unassigned) [Example 98-a, (Z)-5-(5-chloro-2-(1H-tetrazol-1-yl)phenyl)-2-(2^4-((methoxycarbonyl)amino)-4-oxo-1^1H-3-aza-1(4,2)-imidazola-2(1,2) -benzenacyclononaphane-9-yl)pyridine 1-oxide]
[1]
  Ki: 0.51 nM
[2]
  Ki: 0.49 nM

## COC(=O)Nc1ccc2c(c1)NC(=O)CCCCC(c1ccc(-c3cc(Cl)ccc3OC(F)(F)F)c[n+]1[O-])c1nc-2c[nH]1 (single isomer, unassigned) [Example 99-a, (Z)-5-(5-chloro-2-(trifluoromethoxy)phenyl)-2-(2^4-((methoxycarbonyl)amino)-4-oxo-1^1H-3-aza-1(4,2)-imidazola-2(1,2) -benzenacyclononaphane-9-yl)pyridine 1-oxide]
[1]
  Ki: 0.17 nM
[2]
  Ki: 1.21 nM

## COC(=O)Nc1ccc2c(c1)NC(=O)CCCCC(c1ccc(-c3c(OC(F)F)ccc(Cl)c3F)c[n+]1[O-])c1nc-2c[nH]1 (single isomer, unassigned) [Example 100-a, (Z)-5-(3-Chloro-6-(difluoromethoxy)-2-fluorophenyl)-2-(2^4-((methoxycarbonyl)amino)-4-oxo-1^1H-3-aza-1(4,2)-imidazola-2(1,2) -benzenacyclononaphane-9-yl)pyridine 1-oxide]
[1]
  Ki: 0.33 nM
[2]
  Ki: 1.02 nM

## COC(=O)Nc1ccc2c(c1)NC(=O)CCCCC(c1ccc(-c3c(F)cccc3OC(F)F)c[n+]1[O-])c1nc-2c[nH]1 (single isomer, unassigned) [Example 101-a, (Z)-5-(2-(Difluoromethoxy)-6-fluorophenyl)-2-(2^4-((methoxycarbonyl)amino)-4-oxo-1^1H-3-aza-1(4,2)-imidazola-2(1,2) -benzenacyclononaphane-9-yl)pyridine 1-oxide]
[1]
  Ki: 0.34 nM
[2]
  Ki: 3.9 nM

## COC(=O)Nc1ccc2c(c1)NC(=O)CCCCC(c1ccc(-c3cc(Cl)ccc3OC(F)F)c[n+]1[O-])c1nc-2c[nH]1 (single isomer, unassigned) [Example 102-a, (Z)-5-(5-Chloro-2-(difluoromethoxy)phenyl)-2-(2^4-((methoxycarbonyl)amino)-4-oxo-1^1H-3-aza-1(4,2)-imidazola-2(1,2) -benzenacyclononaphane-9-yl)pyridine 1-oxide]
[1]
  Ki: 0.14 nM
[2]
  Ki: 0.43 nM

## COC(=O)Nc1ccc2c(c1)NC(=O)CCCCC(c1ccc(-c3c(F)cc(I)c(Cl)c3F)c[n+]1[O-])c1nc-2c[nH]1 (single isomer, unassigned) [Example 103-a, (Z)-5-(3-Chloro-2,6-difluoro-4-iodophenyl)-2-(2^4-((methoxycarbonyl)amino)-4-oxo-1^1H-3-aza-1(4,2)-imidazola-2(1,2) -benzenacyclononaphane-9-yl)pyridine 1-oxide]
[1]
  Ki: 1.7 nM
[2]
  Ki: 137 nM

## O=C1CCCCC(c2ccc(-c3c(F)ccc(Cl)c3F)c[n+]2[O-])c2nc(c[nH]2)-c2cc(F)ccc2N1 (single isomer, unassigned) [Example 104-a]
[1]
  Ki: 10.8 nM
[2]
  Ki: 26.3 nM

## O=C1CCCCC(c2ccc(-c3cc(Cl)ccc3-n3cc(C(F)F)nn3)c[n+]2[O-])c2nc(c[nH]2)-c2cc(F)ccc2N1 (single isomer, unassigned) [Example 105-a, (Z)-5-(5-Chloro-2-(4-(difluoromethyl)-1H-1,2,3-triazol-1-yl)phenyl)-2-(2^5-fluoro-4-oxo-1^1H-3-aza-1 (4,2)-imidazola-2(1,2)-benzenacyclononaphane-9-yl)pyridine 1-oxide]
[1]
  Ki: 0.56 nM
[2]
  Ki: 17.2 nM

## Nc1ccc2c(c1)NC(=O)CCCCC(c1ccc(-c3c(F)ccc(Cl)c3F)c[n+]1[O-])c1nc-2c[nH]1 (single isomer, unassigned) [Example 108-a]
[1]
  Ki: 0.18 nM
[2]
  Ki: 1.02 nM

## CCOC(=O)Nc1ccc2c(c1)NC(=O)CCCCC(c1ccc(-c3c(F)ccc(Cl)c3F)c[n+]1[O-])c1nc-2c[nH]1 (single isomer, unassigned) [Example 109-a, (Z)-5-(3-chloro-2,6-difluorophenyl)-2-(2^4-((ethoxycarbonyl)amino)-4-oxo-1^1H-3-aza-1(4,2)-imidazola-2(1,2)-benzenacyclononaphane-9-yl)pyridine 1-oxide]
[1]
  Ki: 0.23 nM
[2]
  Ki: 0.77 nM

## COC(=O)Nc1ccc2c(c1)NC(=O)CCCCC(c1ccc(-c3c(F)ccc(Cl)c3F)c[n+]1[O-])c1nc-2c(Cl)[nH]1 (single isomer, unassigned) [Example 110-a, (Z)-5-(3-Chloro-2,6-difluorophenyl)-2-(1^5-chloro-2^4-((Methoxycarbonyl)amino)-4-oxo-1^1H-3-aza-1(4,2)-imidazola-2(1,2) -benzenacyclononaphane-9-yl)pyridine 1-oxide]
[1]
  Ki: 0.52 nM
[2]
  Ki: 0.21 nM

## COC(=O)Nc1ccc2c(c1)NC(=O)CCCCC(c1ccc(-c3c(F)ccc(Cl)c3F)c[n+]1[O-])c1nc-2c(C)[nH]1 (single isomer, unassigned) [Example 111-a, (Z)-5-(3-chloro-2,6-difluorophenyl)-2-(2^4-((methoxycarbonyl)amino)-1^5-methyl-4-oxo-1^1H-3-aza-1(4,2)-imidazola-2(1,2) -benzenacyclononaphane-9-yl)pyridine 1-oxide]
[1]
  Ki: 0.19 nM
[2]
  Ki: 0.34 nM

## CCc1[nH]c2nc1-c1ccc(NC(=O)OC)cc1NC(=O)CCCCC2c1ccc(-c2c(F)ccc(Cl)c2F)c[n+]1[O-] (single isomer, unassigned) [Example 112-a, (Z)-5-(3-Chloro-2,6-difluorophenyl)-2-(1^5-ethyl-2^4-((Methoxycarbonyl)amino)-4-oxo-1^1H-3-AZA-1(4,2)-imidazola-2(1,2) -benzenacyclononaphane-9-yl)pyridine 1-oxide]
[1]
  Ki: 0.13 nM
[2]
  Ki: 0.26 nM
